biological target: AMPK; experiment: AMPK activation, enzyme-linked immunosorbent assay; assay type: biochemical; settings: Table 14, compounds of Table 7
Summary of the method: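 Read-out: ELISA, used to detect compound-driven activation of AMPK.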

SMILES | EC50
O=C(NC1CCN(Cc2cccc(OC(F)(F)F)c2)CC1)c1ccc(C(=O)N2CCC(C(=O)c3ccc(N4CCCC4)cc3)CC2)nc1 [Compound 7-111, 6-(4-(4-(pyrrolidin-1-yl)benzoyl)piperidine-1-carbonyl)-N-(1-(3-(trifluoromethoxy)benzyl)piperidin-4-yl)nicotinamide] | < 1 µM
N#Cc1ccc(O[C@H]2CC[C@@H](NC(=O)c3ccc(C(=O)N4CCC(C(=O)c5ccc(N6CCCC6)cc5)CC4)nc3)CC2)cc1 [Compound 7-112, N-((cis)-4-(4-cyanophenoxy)cyclohexyl)-6-(4-(4-(pyrrolidin-1-yl)benzoyl)piperidine-1-carbonyl)nicotinamide] | < 1 µM
COc1ccc(CN2CCC(NC(=O)c3ccc(C(=O)N4CCC(C(=O)c5ccc(N6CCCC6)cc5)CC4)nc3)CC2)cc1F [Compound 7-113, N-(1-(3-fluoro-4-methoxybenzyl)piperidin-4-yl)-6-(4-(4-(pyrrolidin-1-yl)benzoyl)piperidine-1-carbonyl)nicotinamide] | < 1 µM
O=C(NC1CCN(Cc2ccc(N3CCCC3)cc2)CC1)c1ccc(C(=O)N2CCC(C(=O)c3ccc(N4CCCC4)cc3)CC2)nc1 [Compound 7-114, 6-(4-(4-(pyrrolidin-1-yl)benzoyl)piperidine-1-carbonyl)-N-(1-(4-(pyrrolidin-1-yl)benzyl)piperidin-4-yl)nicotinamide] | < 1 µM
COc1ccc(C(=O)C2CCN(C(=O)c3ccc(C(=O)NC4CCNCC4)cn3)CC2)cc1 [Compound 7-115, 6-(4-(4-methoxybenzoyl)piperidine-1-carbonyl)-N-(piperidin-4-yl)nicotinamide] | 50 to 100 µM
CC(C)Oc1ccc(CN2CCC(NC(=O)c3ccc(C(=O)N4CCC(C(=O)c5ccc(N6CCCC6)cc5)CC4)nc3)CC2)cc1 [Compound 7-116, N-(1-(4-isopropoxybenzyl)piperidin-4-yl)-6-(4-(4-(pyrrolidin-1-yl)benzoyl)piperidine-1-carbonyl)nicotinamide] | < 1 µM
N#Cc1ccc(CN2CCC(NC(=O)c3ccc(C(=O)N4CCC(C(=O)c5ccc(N6CCCC6)cc5)CC4)nc3)CC2)cc1F [Compound 7-117, N-(1-(4-cyano-3-fluorobenzyl)piperidin-4-yl)-6-(4-(4-(pyrrolidin-1-yl)benzoyl)piperidine-1-carbonyl)nicotinamide] | < 1 µM
N#Cc1ccc(CN2CCC(NC(=O)c3ccc(C(=O)N4CCC(Oc5ccc(S(=O)(=O)C(F)(F)F)cc5)CC4)nc3)CC2)cc1 [Compound 7-118, N-(1-(4-cyanobenzyl)piperidin-4-yl)-6-(4-(4-(trifluoromethylsulfonyl)phenoxy)piperidine-1-carbonyl)nicotinamide] | < 1 µM
COc1ccc(CN2CCC(NC(=O)c3ccc(C(=O)N4CCC(Oc5ccc(C(=O)C6CC6)cc5)CC4)nc3)CC2)cc1 [Compound 7-120, 6-(4-(4-(cyclopropanecarbonyl)phenoxy)piperidine-1-carbonyl)-N-(1-(4-methoxybenzyl)piperidin-4-yl)nicotinamide] | < 1 µM
CS(=O)(=O)c1ccc(OC2CCN(C(=O)c3ccc(C(=O)Nc4ccc(Oc5ccc(C#N)cc5)nc4)cn3)CC2)cc1 [Compound 7-121, N-(6-(4-cyanophenoxy)pyridin-3-yl)-6-(4-(4-(methylsulfonyl)phenoxy)piperidine-1-carbonyl) nicotinamide] | < 1 µM
